Assay results taken from patent publication US10968215B2 (SHANGHAI HAIHE PHARMACEUTICAL CO., LTD., priority 2016, dated 2021).
Where two headings read alike, the source gives them in different places.

Molecular target: PRC2 complex (EZH2 Y641F/EED/SUZ12/RbAp48/AEBP2) (Homo sapiens (Human), UniProt Q15910, Y641F)
Assay: Activity of a compound to PRC2 complex (EZH2 Y641F), HTRF
[1] = read-out: IC50 (EZH2_Y641F), EZH2 Y641F PRC2 complex, HTRF, class symbols

Sequence of PRC2 complex (EZH2 Y641F/EED/SUZ12/RbAp48/AEBP2) (Q15910 whole entry Y641F): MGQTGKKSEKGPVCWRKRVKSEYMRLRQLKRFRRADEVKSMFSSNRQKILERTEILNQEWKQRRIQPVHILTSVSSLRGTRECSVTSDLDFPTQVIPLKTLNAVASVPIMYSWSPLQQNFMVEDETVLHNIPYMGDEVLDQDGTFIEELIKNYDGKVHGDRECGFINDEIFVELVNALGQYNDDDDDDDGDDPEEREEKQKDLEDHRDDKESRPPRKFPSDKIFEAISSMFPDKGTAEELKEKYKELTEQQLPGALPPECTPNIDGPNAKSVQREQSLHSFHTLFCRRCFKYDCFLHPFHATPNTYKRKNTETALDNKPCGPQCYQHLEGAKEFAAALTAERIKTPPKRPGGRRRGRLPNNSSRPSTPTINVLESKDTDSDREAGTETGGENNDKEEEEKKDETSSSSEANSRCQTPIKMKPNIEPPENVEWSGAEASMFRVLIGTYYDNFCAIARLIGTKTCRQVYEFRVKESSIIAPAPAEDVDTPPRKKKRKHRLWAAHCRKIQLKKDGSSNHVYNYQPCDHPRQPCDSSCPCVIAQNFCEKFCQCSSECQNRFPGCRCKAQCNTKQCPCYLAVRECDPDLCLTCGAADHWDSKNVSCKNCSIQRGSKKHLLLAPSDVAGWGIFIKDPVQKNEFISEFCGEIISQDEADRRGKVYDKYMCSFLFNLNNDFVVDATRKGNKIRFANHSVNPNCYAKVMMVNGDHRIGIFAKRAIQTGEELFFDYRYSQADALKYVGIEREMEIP
Sequence of PRC2 complex (EZH2 Y641F/EED/SUZ12/RbAp48/AEBP2) (O75530 whole entry partner): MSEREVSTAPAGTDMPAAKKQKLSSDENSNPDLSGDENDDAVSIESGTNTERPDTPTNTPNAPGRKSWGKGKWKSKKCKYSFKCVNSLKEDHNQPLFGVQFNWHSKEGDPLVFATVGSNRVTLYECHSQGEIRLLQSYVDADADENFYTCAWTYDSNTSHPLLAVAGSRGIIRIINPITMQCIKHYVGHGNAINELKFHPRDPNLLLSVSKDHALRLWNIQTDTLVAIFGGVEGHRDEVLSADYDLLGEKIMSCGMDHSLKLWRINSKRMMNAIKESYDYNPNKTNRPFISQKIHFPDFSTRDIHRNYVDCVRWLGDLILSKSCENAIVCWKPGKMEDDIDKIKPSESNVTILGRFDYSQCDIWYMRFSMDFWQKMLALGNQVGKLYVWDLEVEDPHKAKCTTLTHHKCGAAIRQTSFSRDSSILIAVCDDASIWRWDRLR
Sequence of PRC2 complex (EZH2 Y641F/EED/SUZ12/RbAp48/AEBP2) (Q15022 whole entry partner): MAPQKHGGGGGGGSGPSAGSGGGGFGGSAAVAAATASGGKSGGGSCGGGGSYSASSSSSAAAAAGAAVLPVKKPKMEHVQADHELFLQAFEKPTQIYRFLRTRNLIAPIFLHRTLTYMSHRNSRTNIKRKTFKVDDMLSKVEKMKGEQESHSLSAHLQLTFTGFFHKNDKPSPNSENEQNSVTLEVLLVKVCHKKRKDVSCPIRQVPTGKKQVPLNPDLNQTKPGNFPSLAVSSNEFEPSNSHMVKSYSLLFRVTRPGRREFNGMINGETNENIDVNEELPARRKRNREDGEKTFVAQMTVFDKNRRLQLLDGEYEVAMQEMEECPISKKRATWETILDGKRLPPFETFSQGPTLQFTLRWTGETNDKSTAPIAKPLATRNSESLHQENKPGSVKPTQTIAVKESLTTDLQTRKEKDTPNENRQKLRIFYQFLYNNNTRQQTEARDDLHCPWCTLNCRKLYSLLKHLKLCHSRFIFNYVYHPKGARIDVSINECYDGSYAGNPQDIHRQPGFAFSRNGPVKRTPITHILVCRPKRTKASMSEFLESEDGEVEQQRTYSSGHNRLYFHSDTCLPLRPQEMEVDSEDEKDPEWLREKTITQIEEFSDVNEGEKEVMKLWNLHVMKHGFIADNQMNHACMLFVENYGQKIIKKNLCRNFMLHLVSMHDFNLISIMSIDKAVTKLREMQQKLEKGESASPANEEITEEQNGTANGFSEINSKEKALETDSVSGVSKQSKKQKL
Sequence of PRC2 complex (EZH2 Y641F/EED/SUZ12/RbAp48/AEBP2) (Q09028 whole entry partner): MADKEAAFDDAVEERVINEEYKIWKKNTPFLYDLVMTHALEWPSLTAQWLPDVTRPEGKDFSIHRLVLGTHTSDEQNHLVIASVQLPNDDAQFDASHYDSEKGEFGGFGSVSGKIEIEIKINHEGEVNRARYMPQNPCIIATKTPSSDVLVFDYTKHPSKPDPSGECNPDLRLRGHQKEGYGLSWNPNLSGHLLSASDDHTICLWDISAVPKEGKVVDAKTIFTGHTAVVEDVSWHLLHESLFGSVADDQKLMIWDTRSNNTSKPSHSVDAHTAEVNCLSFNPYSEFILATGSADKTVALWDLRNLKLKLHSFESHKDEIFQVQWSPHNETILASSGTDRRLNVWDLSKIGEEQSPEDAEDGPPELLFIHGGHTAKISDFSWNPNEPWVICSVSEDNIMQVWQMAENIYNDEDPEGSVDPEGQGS
Sequence of PRC2 complex (EZH2 Y641F/EED/SUZ12/RbAp48/AEBP2) (Q6ZN18 whole entry partner): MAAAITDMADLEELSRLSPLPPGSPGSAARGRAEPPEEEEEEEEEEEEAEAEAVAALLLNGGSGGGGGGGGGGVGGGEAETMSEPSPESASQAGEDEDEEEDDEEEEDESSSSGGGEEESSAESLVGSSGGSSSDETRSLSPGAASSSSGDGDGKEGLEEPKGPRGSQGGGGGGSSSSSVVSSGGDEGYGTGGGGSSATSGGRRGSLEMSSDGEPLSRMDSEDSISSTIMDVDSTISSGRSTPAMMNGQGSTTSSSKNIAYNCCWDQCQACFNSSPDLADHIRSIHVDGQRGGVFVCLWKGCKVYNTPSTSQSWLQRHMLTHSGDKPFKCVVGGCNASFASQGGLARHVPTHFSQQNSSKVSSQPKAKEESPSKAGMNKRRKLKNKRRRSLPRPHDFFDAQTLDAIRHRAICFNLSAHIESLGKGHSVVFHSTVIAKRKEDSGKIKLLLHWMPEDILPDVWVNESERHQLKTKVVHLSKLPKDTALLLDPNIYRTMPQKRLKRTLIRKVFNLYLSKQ

Row | IC50 [1] [nM] | SMILES | IC50 [nM]
1 |  | Cc1cc(C)c(CNC(=O)c2cc3cc(-c4cc5c(s4)CCNC5)cn3c(C(C)N3CCOCC3)c2C)c(=O)[nH]1 (stereo not drawn) [Example 115, N-((4,6-dimethyl-2-oxo-1,2-dihydropyridin-3-yl)methyl)-6-methyl-5-(1-morpholinoethyl)-2-(4,5,6,7-tetrahydrothieno[3,2-c]pyridin-2-yl)indolizine-7-carboxamide] | < 100
2 | 100 to 1000 | Cc1cc(C)c(CNC(=O)c2cc3cccn3c(C(C)OC3CCCCC3)c2C)c(=O)[nH]1 (stereo not drawn) [Example 8, 5-(1-(cyclohexyloxy)ethyl)-N-((4,6-dimethyl-2-oxo-1,2-dihydropyridin-3-yl)methyl)-6-methylindolizine-7-carboxamide] | 
3 | > 10000 | COC(c1ccc(Br)cc1)c1c(C)c(C(=O)NCc2c(C)cc(C)[nH]c2=O)cc2cccn12 (stereo not drawn) [Example 24, 5-((4-bromophenyl)(methoxy)methyl)-N-((4,6-dimethyl-2-oxo-1,2-dihydropyridin-3-yl)methyl)-6-methylindolizine-7-carboxamide] | 
4 | 100 to 1000 | COc1cc(C)[nH]c(=O)c1CNC(=O)c1cc2c(-c3ccc(C)nc3C)ccn2c([C@H](C)N2CCN(CC(F)(F)F)CC2)c1C (single isomer, unassigned) [Compound 178, (S)-1-(2,6-dimethylpyridin-3-yl)-N-((4-methoxy-6-methyl-2-oxo-1,2-dihydropyridine-3-yl)methyl)-6-methyl-5-(1-(4-(2,2,2-trifluoroethyl)piperazin-1-yl)ethyl)indolizine-7-carboxamide or (R) 1-(2,6-dimethylpyridin-3-yl)-N-((4-methoxy-6-methyl-2-oxo-1,2-dihydropyridine-3-yl)methyl)-6-methyl-5-(1-(4-(2,2,2-trifluoroethyl)piperazin-1-yl)ethyl)indolizine-7-carboxamide] | 
5 | 100 to 1000 | Cc1cc(C)c(CNC(=O)c2cc3cc(Br)cn3c(C(C)N3CCC(N4CCCC4)CC3)c2C)c(=O)[nH]1 (stereo not drawn) [Example 144, 2-bromo-N-((4,6-dimethyl-2-oxo-1,2-dihydropyridin-3-yl)methyl)-5-(1-(4-hydroxypiperidin-1-yl)ethyl)-6-indolizine-7-carboxamide] | 
6 |  | CCN(c1c(C)c(C(=O)NCc2c(C)cc(C)[nH]c2=O)cc2cc(Br)cn12)C1CCOCC1 [Example 58, 2-bromo-N-((4,6-dimethyl-2-oxo-1,2-dihydropyridin-3-yl)methyl)-5-(ethyl(tetrahydro-2H-pyran-4-yl)amino)-6-methylindolizine-7-carboxamide] | 100 to 1000
7 | < 100 | CNc1cc(-c2ccn3c([C@H](C)N4CCN(CC(F)(F)F)CC4)c(C)c(C(=O)NCc4c(OC)cc(C)[nH]c4=O)cc23)ccn1 (single isomer, unassigned) [Compound 181, (S)—N-((4-methoxy-6-methyl-2-oxo-1,2-dihydropyridin-3-yl)methyl)-6-methyl-1-(2-(methylamino)pyridin-4-yl)-5-(1-(4-(2,2,2-trifluoroethyl)piperazin-1-yl)ethyl)indolizine-7-formamide or (R)—N-((4-methoxy-6-methyl-2-oxo-1,2-dihydropyridin-3-yl)methyl)-6-methyl-1-(2-(methylamino)pyridin-4-yl)-5-(1-(4-(2,2,2-trifluoroethyl)piperazin-1-yl)ethyl)indolizine-7-formamide] | 
8 | < 100 | CCN(c1c(C)c(C(=O)NCc2c(OC)cc(C)[nH]c2=O)cc2c(-c3ccnc(N(C)C)c3)ccn12)C1CCN(CC(F)(F)F)CC1 [Compound 203, 1-(2-(dimethylamino)pyridin-4-yl)-5-(ethyl(1-(2,2,2-trifluoroethyl)piperidin-4-yl)amino)-N-((4-methoxy-6-methyl-2-oxo-1,2-dihydropyridin-3-yl)methyl)-6-methylindolizine-7-carboxamide] | 
9 | < 100 | COc1cc(C)[nH]c(=O)c1CNC(=O)c1cc2c(-c3ccnc(Cl)c3)ccn2c([C@H](C)N2CCN(CC(F)(F)F)CC2)c1C (single isomer, unassigned) [Compound 169, (S)-1-(2-chloropyridin-4-yl)-N-((4-methoxy-6-methyl-2-oxo-1,2-dihydropyridine-3-yl)methyl)-6-methyl-5-(1-(4-(2,2,2-trifluoroethyl)piperazin-1-yl)ethyl)indolizine-7-carboxamide or (R) 1-(2-chloropyridin-4-yl)-N-((4-methoxy-6-methyl-2-oxo-1,2-dihydropyridine-3-yl)methyl)-6-methyl-5-(1-(4-(2,2,2-trifluoroethyl)piperazin-1-yl)ethyl)indolizine-7-carboxamide] | 
10 | 100 to 1000 | Cc1cc(C)c(CNC(=O)c2cc3cc(Br)cn3c(C(C)N3CCN(C(=O)CO)CC3)c2C)c(=O)[nH]1 (stereo not drawn) [Example 101] | 
11 | 100 to 1000 | Cc1cc(C)c(CNC(=O)c2cc3cc(-c4ccnn4C)cn3c(C(C)N3CCN(CC(F)(F)F)CC3)c2C)c(=O)[nH]1 (stereo not drawn) [Example 84, N-((4,6-dimethyl-2-oxo-1,2-dihydropyridin-3-yl)methyl)-6-methyl-2-(1-methyl-1H-pyrazole-5-yl)-5-(1-(4-(2,2,2-trifluoroethyl)piperazin-1-yl)ethyl)indolizine-7-carboxamide] | 
12 | 100 to 1000 | CCN(c1c(C)c(C(=O)NCc2c(C)cc(C)[nH]c2=O)cc2cc(-c3ccnn3C)cn12)C1CCOCC1 [Example 64, N-((4,6-dimethyl-2-oxo-1,2-dihydropyridin-3-yl)methyl)-5-(ethyl(tetrahydro-2H-pyran-4-yl)amino)-6-methyl-2-(4-morpholinephenyl)indolizine-7-carboxamide] | 
13 | < 100 | COc1cc(C)[nH]c(=O)c1CNC(=O)c1cc2cc(-c3nccn3C)cn2c(C(C)N2CCC(N(C)C)CC2)c1C (stereo not drawn) [Example 107] | 
14 | 100 to 1000 | Cc1cc(C)c(CNC(=O)c2cc3cc(Br)cn3c(C(C)N3CCC(C#N)CC3)c2C)c(=O)[nH]1 (stereo not drawn) [Example 146, 2-bromo-5-(1-(4-cyanopiperidin-1-yl)ethyl)-N-((4,6-dimethyl-2-oxo-1,2-dihydropyridin-3-yl)methyl)-6-methylindolizine-7-carboxamide] | 
15 |  | CNc1cc(-c2ccn3c(C(C)N4CCN(CC(F)(F)F)CC4)c(C)c(C(=O)NCc4c(OC)cc(C)[nH]c4=O)cc23)ccn1 (stereo not drawn) [Compound 180, N-((4-methoxy-6-methyl-2-oxo-1,2-dihydropyridin-3-yl)methyl)-6-methyl-1-(2-(methylamino)pyridin-4-yl)-5-(1-(4-(2,2,2-trifluoroethyl)piperazin-1-yl)ethyl)indolizine-7-carboxamide] | < 100
16 | < 100 | COc1cc(C)[nH]c(=O)c1CNC(=O)c1cc2c(-c3ccnc4c3CCN4)ccn2c(C(C)N2CCN(CC(F)(F)F)CC2)c1C (stereo not drawn) [Compound 207] | 
17 | < 100 | CCN(c1c(C)c(C(=O)NCc2c(C)cc(C)[nH]c2=O)cc2cc(-c3cnn(C)c3)cn12)C1CCOCC1 [Example 66, N-((4,6-dimethyl-2-oxo-1,2-dihydropyridin-3-yl)methyl)-5-(ethyl(tetrahydro-2H-pyran-4-yl)amino)-6-methyl-2-(1-methyl-1H-pyrazol-4-yl)indolizin-7-carboxamide] | 
18 |  | COc1ccc(-c2ccn3c(C(C)N4CCOCC4)c(C)c(C(=O)NCc4c(C)cc(C)[nH]c4=O)cc23)cc1 (stereo not drawn) [Example 121, N-((4,6-dimethyl-2-oxo-1,2-dihydropyridin-3-yl)methyl)-6-methyl-5-(1-morpholinylethyl)-1-(4-methoxyphenyl)indolizine-7-carboxamide] | 100 to 1000

Row | SMILES | IC50 [1] [nM] | IC50 [nM]
19 | COC(=O)c1cc2cc(C(=O)NCc3c(C)cc(C)[nH]c3=O)c(C)c(C(C)N3CCOCC3)n2c1 (stereo not drawn) [Example 125, methyl 7-(((4,6-dimethyl-2-oxo-1,2-dihydropyridin-3-yl)methyl)carbamoyl)-6-methyl-5-(1-morpholinylethyl)indolizine-2-carboxylate] | 100 to 1000 | 
20 | Cc1cc(C)c(CNC(=O)c2cc3cc(Cl)cn3c(C(C)N3CCOCC3)c2C)c(=O)[nH]1 (stereo not drawn) [Example 69, 2-chloro-N-((4,6-dimethyl-2-oxo-1,2-dihydropyridin-3-yl)methyl)-6-methyl-5-(1-morphinolinylethyl)indolizine-7-carboxamide] | < 100 | 
21 | Cc1cc(C)c(CNC(=O)c2cc3cccn3c(C(C)Oc3ccc(N(C)C)cc3)c2C)c(=O)[nH]1 (stereo not drawn) [Example 22] | 1000 to 10000 | 
22 | Cc1cc(C)c(CNC(=O)c2cc3cc(-c4cn(C)cn4)cn3c(C(C)N3CCOCC3)c2C)c(=O)[nH]1 (stereo not drawn) [Example 51, N-((4,6-dimethyl-2-oxo-1,2-dihydropyridin-3-yl)methyl)-6-methyl-5-(1-morphinolinylethyl)-2-(pyridin-2-yl)indolizine-7-carboxamide] | < 100 | 
23 | Cc1cc(C)c(CNC(=O)c2cc3cc(Br)cn3c(C(C)N3CCN(CCC(F)(F)F)CC3)c2C)c(=O)[nH]1 (stereo not drawn) [Example 105, 2-bromo-N-((4,6-dimethyl-2-oxo-1,2-dihydropyridin-3-yl)methyl)-6-methyl-5-(1-(4-(3,3,3-trifluoropropyl)piperazin-1-yl)ethyl)indolizine-7-carboxamide] | 1000 to 10000 | 
24 | Cc1cc(C)c(CNC(=O)c2cc3cc(-c4cncs4)cn3c(C(C)N3CCC(N(C)C)CC3)c2C)c(=O)[nH]1 (stereo not drawn) [Example 138] | < 100 | 
25 | COc1cccc(-c2ccn3c(C(C)N4CCOCC4)c(C)c(C(=O)NCc4c(C)cc(C)[nH]c4=O)cc23)c1 (stereo not drawn) [Example 120, N-((4,6-dimethyl-2-oxo-1,2-dihydropyridin-3-yl)methyl)-6-methyl-5-(1-morpholinylethyl)-1-(3-methoxyphenyl)indolizine-7-amide] | < 100 | 
26 | Cc1cc(C)c(CNC(=O)c2cc3cc(-c4ccc(N)nc4)cn3c(C(C)N3CCOCC3)c2C)c(=O)[nH]1 (stereo not drawn) [Example 89, 2-(6-aminopyridin-3-yl)-N-((4,6-dimethyl-2-oxo-1,2-dihydropyridin-3-yl)methyl)-6-methyl-5-(1-morpholinylethyl)indolizine-7-amide] | < 100 | 
27 | Cc1cc(C)c(CNC(=O)c2cc3cc(-c4ccc5c(c4)OCO5)cn3c(C(C)N3CCOCC3)c2C)c(=O)[nH]1 (stereo not drawn) [Example 31, 2-(benzo[d][1,3]dioxol-5-yl)-N-((4,6-dimethyl-2-oxo-1,2-dihydropyridine-3-yl)methyl)-6-methyl-5-(1-morphinolinylethyl)indolizin-7-carboxamide] | 100 to 1000 | 
